# Results as given in article PMC4464647, “ANO1 (TMEM16A) in pancreatic ductal adenocarcinoma (PDAC)” (Pflugers Archiv, 2014).
# d = 2'-deoxy (DNA)
# Columns and labels:
# VRAC = test: Whole-cell patch-clamp of swelling-activated (VRAC) currents, hypotonic bath, 0 μM Ca2+ pipette; format: cell-based, human; details: HPDE and BxPC-3 cells, inhibitor 20 μM, Vm = +65 mV
# Protocol: Cells were grown on poly-L-lysine coated coverslips. For knockdown experiments, cells were transfected with siRNA targeting ANO1 or scrambled siRNA shortly after complete attachment of the cells (approx. 3 h after plating). Currents were measured 36–48 h after transfection. Whole-cell patch-clamp recordings were performed using the Axopatch 200B amplifier interfaced to a Digidata 1440A controlled by pClamp10 software (Molecular Devices, USA). Analogue signals were acquired at 2.5 kHz and filtered at 1 kHz. […] An agar bridge made of 3 % agar and 97 % of the bath solution containing NMDG-Cl (below) was used as reference electrode. Current activations were recorded from an output holding potential, V out = 0 mV with ramp protocols spanning from −100 to 100 mV over 1 s and run continuously with 15-s intervals. […] Liquid junction potentials (V lj) were estimated as described in [10] with membrane potentials calculated as, V m = V out − V lj. […] Instantaneous currents were measured 1 ms after each voltage step. […]
# One micromolar free Ca^2+ pipette solution include the following (in mM): 100 CsAsp, 40 CsCl, 4.34 CaCl2, 4 Na2ATP, 1 MgCl2, 5 EGTA, 10 HEPES, pH 7.2, osmolality 295 mosmol/kg or 0 μM free Ca^2+ solution containing no CaCl2 and 10 mM EGTA. […] All osmolalities were measured in a Wescor Vapro model 5520 osmometer (Wescor Inc., USA) calibrated by the manufacturer’s Optimol standard solutions. […]
# BxPC-3 cells = test: Scratch wound healing assay; format: cell-based, human; details: 5 μM aphidicolin; for effect on wound closure / migratory behavior: BxPC-3, inhibitor 20 μM
# Protocol: Cells were seeded into Essen ImageLock 96-well plates. Cells were transfected with siRNA shortly after cells completely attached at 80 % confluency. […] The wound confluence was obtained and analyzed by using the IncuCyte phase-contrast imaging and scratch wound assay system and software (Essen Bioscience, USA). Wound closure was assessed by comparing the mean relative wound density (%RWD) according to the following formula: % RWD = 100 × w(t) − w(0)/[…]. Here, w(t) is the density of wounded area at time t and c(t) is the density of cell region at time t. Each experiment was conducted in triplicates.
# We therefore assessed a possible contribution of ANO1 in PDAC cell migration using wound healing assay. […] The experiments were conducted in the presence of 5 μM aphidicolin to rule out a possible effect on cell proliferation. […] AsPC-1 cells were therefore not well suited for studies of lateral motility.
# Fig. 9 ANO1 supports migration of PDAC cells. Wound healing assay is shown as relative wound density (density of wounded area relative to confluency of cell region) over time. Aphidicolin (5 μM) was added to stop proliferation. a AsPC-1 cells and b BxPC-3 cells after transfection with either scrambled siRNA (5 nM) or siRNA targeting ANO1 (50 nM). c BxPC-3 cells in presence of different inhibitors. Data shown represents mean ± s.e.m. of n = 4 experiments; each run was carried out in triplicates
Molecule,effect on VRAC currents (VRAC),effect on wound closure / migratory behavior (BxPC-3 cells),"migration decreased to (BxPC-3 cells; BxPC-3, siRNA 50 nM, after 60 h) [%]"
"CC(C)(C)C1CCc2c(sc(NC(=O)c3ccco3)c2C(=O)O)C1 (centres unmarked) [CaCCinh-A01, 6-(1,1-dimethylethyl)-2-[(2-furanylcarbonyl)amino]-4,5,6,7-tetrahydrobenzo[b]thiophene-3-carboxylic acid]",Neither T16Ainh-A01 nor CaCCinh-A01 inhibited the VRAC currents significantly,"seemed to slow down wound closure; however, this did not reach significance",–
"CCc1c(C)nc(SCC(=O)Nc2nc(-c3ccc(OC)cc3)cs2)[nH]c1=O [T16Ainh-A01, 2-[(5-Ethyl-1,6-dihydro-4-methyl-6-oxo-2-pyrimidinyl)thio]-N-[4-(4-methoxyphenyl)-2-thiazolyl]acetamide]",Neither T16Ainh-A01 nor CaCCinh-A01 inhibited the VRAC currents significantly,no detectable effect on migratory behavior,–
"siRNA targeting ANO1: Predesigned siRNA oligo from Sigma-Aldrich, 5′-CCUUCAACGUCAGUGACUU[dT][dT]-3′, 5′-AAGUCACUGACGUUGAAGG[dT][dT]-3′ (RNA, 3' dTdT, backbone not given here)",–,–,30 ± 8
